Measured values: US20220411380A1, “ACID ADDITION SALT OF RORy REGULATOR” (JIANGSU HENGRUI MEDICINE CO., LTD., priority 2019, published 2022)
Each block holds one compound with its values, some of them ahead of it.

Columns and labels:
[1] = biological target: T1, RORγ LBD-GST tagged (Homo sapiens, UniProt P51449); assay: LanthaScreen TR-FRET RORγ-LBD and co-activation peptide biochemical assay; details: Fluorescein-D22 coactivator, read-out: RORγ coactivation assay (IC50)
T1 construct: RORγ LBD-GST tagged (Cat No. RORC-114H, Creative Biomart); purchased Creative Biomart RORC-114H
T1 sequence (P51449 269-508 limits assumed): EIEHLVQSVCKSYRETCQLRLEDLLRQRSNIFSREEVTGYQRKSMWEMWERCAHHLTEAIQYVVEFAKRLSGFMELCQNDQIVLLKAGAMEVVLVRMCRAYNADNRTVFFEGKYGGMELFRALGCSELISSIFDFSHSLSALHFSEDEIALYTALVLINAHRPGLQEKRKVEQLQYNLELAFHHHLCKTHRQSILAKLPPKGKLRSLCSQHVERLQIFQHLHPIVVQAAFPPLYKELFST
Description: Test Example 1. Biochemical Assay of LanthaScreen TR-FRET RORγ-LBD and Co-Activation Peptide
Complete TR-FRET Coregulator Buffer D was prepared by diluting 1 M DTT with TR-FRET Coregulator Buffer D to a final concentration of 5 mM DTT. The compounds were diluted in Complete TR-FRET Coregulator Buffer D. The solutions were serially 7-fold diluted from an initial concentration of 3 μM to the 7th concentration. 10 μL of the dilutions was added to each well of the 384-well plate. For negative and positive controls, 10 μL of Complete TR-FRET Coregulator Buffer D was added.
A RORγ LBD solution was prepared using Complete TR-FRET Coregulator Buffer D. The final concentration of the RORγ LBD solution in each reaction was 25 ng. Other than the negative wells receiving 5 μL of Complete TR-FRET Coregulator Buffer D, 5 μL of the RORγ LBD solution was added to the remaining wells of the 384-well assay plate.
Complete TR-FRET Coregulator Buffer D was used to prepare a solution containing 0.6 μM Fluorescein-D22 and 8 nM Tbanti-GST antibody, and 5 μL of the prepared solution was added to all wells of the 384-well assay plate. […]
The plate was measured on a Tecan Infinite M1000 plate reader at wavelengths of 520 nm and 495 nm. IC50 values were calculated using GraphPad Prism by plotting log compound concentration versus percentage inhibition.

[2] = test system: IL-17A production in human peripheral blood mononuclear cells; assay: Inhibition of cytokine IL-17A production in human peripheral blood mononuclear cells; assay type: cell-based; details: 72 h; human PBMC, cytostim, 3 days, IL-17A ELISA
Description: Test Example 2. Assay for Inhibiting Cytokine IL-17A Production in Human Peripheral Blood Mononuclear Cells
Frozen human peripheral blood mononuclear cells (PBMCs) were rapidly thawed in a pre-warmed lymphocyte medium and centrifuged at 1000 rpm for 10 min. The cell culture supernatant was discarded, and the cells were gently suspended in the TexMACS medium and counted. T cell activating reagent cytostim (10 μL/mL) was added to the cell suspension in certain proportions, and then the cells were seeded in a 96-well cell culture plate at a density of 1×10^5 PBMCs/well. Test compounds were diluted in gradient using TexMACS medium and added to the treatment wells in 2-3 replicates. Negative control wells containing cells only without cytostim were prepared to obtain background readings. The cell culture plate was incubated in a 5% carbon dioxide/37° C. incubator for 3 days. Cell culture supernatant was collected 3 days after treatment and centrifuged to remove the suspended matter. IL-17A in the supernatant was then quantified using an IL-17A enzyme-linked immunosorbent assay kit. […]
In the calculation equation, inhibition % is inhibition rate; OD(NC) is the reading of cells in negative control groups with no cytostim and no compound; OD(PC) is the reading of cells in positive control groups with cytostim but no compound; OD(compound) is the reading of cells with cytostim and compound.

[3] = Influencing factor study of amorphous form of compound of formula II; assay type: physicochemical
Description: A sample of the amorphous form of the compound of formula II (Example 4) was let stand open to examine the stability of the sample in conditions of heating (40° C. and 60° C.), illumination (4500 Lux) and high humidity (RH 75% and RH 90%) in a period of 30 days.

[4] = Long-term/accelerated stability study of amorphous form of compound of formula II; assay type: physicochemical
Description: The amorphous form of the compound of formula II (Example 4) was subjected to a long-term (25° C., 60% RH)/accelerated (40° C., 75% RH) stability study with a period of 3 months.

[5] = as above; assay type: physicochemical; remark: listed apart in the source

- IC50 [1]: 13 nM
- IC50 [2]: 10 nM
Compound: NC(=O)C[C@H](c1ccc(S(=O)(=O)CC2CC2)cc1)c1nc2cc(-c3ccccc3OC(F)F)c(Cl)cc2[nH]1 (single isomer, unassigned) [compound of formula II]

- Amorphous form Purity (%) ([3]; 40° C., 5 days): 99.93%
- Color and appearance ([3]; 40° C., 5 days): White solid
- Amorphous form Purity (%) ([3]; 40° C., 10 days): 99.90%
- Chiral purity ([3]; 40° C., 10 days): 99.4
- Color and appearance ([3]; 40° C., 10 days): White solid
- Amorphous form Purity (%) ([3]; 40° C., 30 days): 99.92%
- Chiral purity ([3]; 40° C., 30 days): 99.5
- Color and appearance ([3]; 40° C., 30 days): White solid
- Amorphous form Purity (%) ([3]; 60° C., 5 days): 99.95%
- Color and appearance ([3]; 60° C., 5 days): White solid
- Amorphous form Purity (%) ([3]; 60° C., 10 days): 99.95%
- Chiral purity ([3]; 60° C., 10 days): 99.4
- Color and appearance ([3]; 60° C., 10 days): White solid
- Amorphous form Purity (%) ([3]; 60° C., 30 days): 99.95%
- Chiral purity ([3]; 60° C., 30 days): 99.4
- Color and appearance ([3]; 60° C., 30 days): White solid
- Amorphous form Purity (%) ([3]; 4500 Lux, 5 days): 99.91%
- Color and appearance ([3]; 4500 Lux, 5 days): White solid
- Amorphous form Purity (%) ([3]; 4500 Lux, 10 days): 99.91%
- Chiral purity ([3]; 4500 Lux, 10 days): 99.3
- Color and appearance ([3]; 4500 Lux, 10 days): White solid
- Amorphous form Purity (%) ([3]; 4500 Lux, 30 days): 99.93%
- Chiral purity ([3]; 4500 Lux, 30 days): 99.3
- Color and appearance ([3]; 4500 Lux, 30 days): White solid
- Stability (conclusion of influencing factor study) ([3]; 30 days, illumination, 40° C., 60° C., high humidity of 75% and 90%): good chemical stability
- Amorphous form Purity (%) ([3]; Initial, 0 days): 99.91%
- Chiral purity ([3]; Initial, 0 days): 99.4
- Color and appearance ([3]; Initial, 0 days): White solid
- Amorphous form Purity (%) ([3]; RH 75%, 5 days): 99.92%
- Color and appearance ([3]; RH 75%, 5 days): White solid
- Weight gain (%) ([3]; RH 75%, 5 days): 10.42%
- Amorphous form Purity (%) ([3]; RH 75%, 10 days): 99.90%
- Chiral purity ([3]; RH 75%, 10 days): 99.3
- Color and appearance ([3]; RH 75%, 10 days): White solid
- Weight gain (%) ([3]; RH 75%, 10 days): 13.2%
- Amorphous form Purity (%) ([3]; RH 75%, 30 days): 99.90%
- Chiral purity ([3]; RH 75%, 30 days): 99.4
- Color and appearance ([3]; RH 75%, 30 days): White solid
- Weight gain (%) ([3]; RH 75%, 30 days): 23.24%
- Amorphous form Purity (%) ([3]; RH 90%, 5 days): 99.91%
- Color and appearance ([3]; RH 90%, 5 days): White solid
- Weight gain (%) ([3]; RH 90%, 5 days): 21.67%
- Amorphous form Purity (%) ([3]; RH 90%, 10 days): 99.92%
- Chiral purity ([3]; RH 90%, 10 days): 99.4
- Color and appearance ([3]; RH 90%, 10 days): White solid
- Weight gain (%) ([3]; RH 90%, 10 days): 26.49%
- Amorphous form Purity (%) ([3]; RH 90%, 30 days): 99.89%
- Chiral purity ([3]; RH 90%, 30 days): 99.4
- Color and appearance ([3]; RH 90%, 30 days): White solid
- Weight gain (%) ([3]; RH 90%, 30 days): 37.24%
- Stability (conclusion of long-term/accelerated study) ([4]; 25° C., 60% RH and 40° C., 75% RH, 3 months): good chemical stability
- Chiral purity Initial ([4]; 25° C., 60% RH, Initial): 99.2
- Purity Initial ([4]; 25° C., 60% RH, Initial): 99.87
- Purity (%) Month 1 ([4]; 25° C., 60% RH): 99.86%
- Purity (%) Month 2 ([4]; 25° C., 60% RH, Month 2): 99.86%
- Chiral purity Initial ([4]; 40° C., 75% RH, Initial): 99.2
- Purity (%) Month 1 ([4]; 40° C., 75% RH): 99.87%
- Chiral purity (%) Month 3 ([4]; 40° C., 75% RH, Month 3): 99.1%
- Purity (%) Month 3 ([4]; 40° C., 75% RH, Month 3): 99.88%
- Chiral purity Initial ([5]; 5° C., Initial): 99.2
- Purity Initial ([5]; 5° C., Initial): 99.87
- Purity (%) Month 1 ([5]; 5° C., Month 1): 99.86%
- Purity (%) Month 2 ([5]; 5° C.): 99.86%
- Chiral purity (%) Month 3 ([5]; 5° C.): 99.1%
- Purity (%) Month 3 ([5]; 5° C.): 99.85%
- Chiral purity (%) Month 3 ([5]; 25° C., 60% RH): 99.2%
- Purity (%) Month 3 ([5]; 25° C., 60% RH): 99.85%
- Purity Initial ([5]; 40° C., 75% RH, Initial): 99.87
- Purity (%) Month 2 ([5]; 40° C., 75% RH): 99.86%
Compound: NC(=O)C[C@H](c1ccc(S(=O)(=O)CC2CC2)cc1)c1nc2cc(-c3ccccc3OC(F)F)c(Cl)cc2[nH]1 [amorphous form of compound of formula II]
